Source: BigSolDB 2.1

Cc1cccc(C(=O)O)c1[N+](=O)[O-]
Settings | solubility (mole fraction)
in isobutanol, 297.15 K | 0.0102
in isobutanol, 300.65 K | 0.0119
in isobutanol, 303.45 K | 0.0138
in isobutanol, 306.55 K | 0.0161
in isobutanol, 311.15 K | 0.0193
in isobutanol, 315.05 K | 0.0227
in isobutanol, 317.85 K | 0.0268
in isobutanol, 322.15 K | 0.0314
in isobutanol, 326.25 K | 0.0367
in isobutanol, 330.35 K | 0.0425
in isobutanol, 333.45 K | 0.0486
in isobutanol, 337.15 K | 0.0558
in n-butanol, 300.75 K | 0.0177
in n-butanol, 304.15 K | 0.0199
in n-butanol, 307.55 K | 0.0228
in n-butanol, 312.55 K | 0.0264
in n-butanol, 316.15 K | 0.0304
in n-butanol, 319.85 K | 0.0351
in n-butanol, 324.15 K | 0.0406
in n-butanol, 328.25 K | 0.0466
in n-butanol, 332.25 K | 0.0529
in n-butanol, 335.95 K | 0.0597
in n-butanol, 339.95 K | 0.0676
in n-butanol, 343.45 K | 0.0742
in sec-butanol, 305.05 K | 0.024
in sec-butanol, 307.65 K | 0.0272
in sec-butanol, 311.15 K | 0.0314
in sec-butanol, 315.25 K | 0.0373
in sec-butanol, 319.85 K | 0.0447
in sec-butanol, 323.95 K | 0.053
in sec-butanol, 328.85 K | 0.0622
in sec-butanol, 333.35 K | 0.0718
in sec-butanol, 337.65 K | 0.0817
in sec-butanol, 342.25 K | 0.0921
in sec-butanol, 346.25 K | 0.102
in tert-butanol, 301.35 K | 0.0307
in tert-butanol, 304.05 K | 0.0328
in tert-butanol, 306.25 K | 0.0366
in tert-butanol, 310.05 K | 0.0442
in tert-butanol, 314.75 K | 0.0531
in tert-butanol, 318.95 K | 0.0619
in tert-butanol, 323.05 K | 0.0711
in tert-butanol, 327.35 K | 0.0802
in tert-butanol, 331.45 K | 0.0898
in tert-butanol, 335.95 K | 0.0999
in tert-butanol, 340.65 K | 0.111

Cc1ccc([N+](=O)[O-])c(C(=O)O)c1
Settings | solubility (mole fraction)
in isobutanol, 293.75 K | 0.113
in isobutanol, 299.15 K | 0.133
in isobutanol, 305.75 K | 0.153
in isobutanol, 311.15 K | 0.173
in isobutanol, 317.55 K | 0.193
in isobutanol, 322.95 K | 0.209
in isobutanol, 328.15 K | 0.227
in isobutanol, 333.65 K | 0.243
in n-butanol, 290.65 K | 0.167
in n-butanol, 292.15 K | 0.172
in n-butanol, 294.15 K | 0.183
in n-butanol, 297.75 K | 0.199
in n-butanol, 302.85 K | 0.218
in n-butanol, 307.15 K | 0.237
in n-butanol, 311.65 K | 0.256
in n-butanol, 315.15 K | 0.275
in n-butanol, 319.75 K | 0.295
in n-butanol, 323.85 K | 0.316
in n-butanol, 328.15 K | 0.338
in sec-butanol, 290.15 K | 0.185
in sec-butanol, 292.45 K | 0.199
in sec-butanol, 297.65 K | 0.225
in sec-butanol, 303.15 K | 0.253
in sec-butanol, 309.95 K | 0.28
in sec-butanol, 315.35 K | 0.305
in sec-butanol, 321.15 K | 0.329
in sec-butanol, 326.15 K | 0.352
in sec-butanol, 330.55 K | 0.372
in tert-butanol, 301.55 K | 0.255
in tert-butanol, 305.15 K | 0.274
in tert-butanol, 309.85 K | 0.295
in tert-butanol, 314.45 K | 0.318
in tert-butanol, 318.15 K | 0.341
in tert-butanol, 322.75 K | 0.366
in tert-butanol, 327.35 K | 0.392
in tert-butanol, 332.05 K | 0.418
in tert-butanol, 336.55 K | 0.445
in tert-butanol, 339.55 K | 0.473

Cc1cc(C(=O)O)ccc1[N+](=O)[O-]
Settings | solubility (mole fraction)
in isobutanol, 306.95 K | 0.009
in isobutanol, 309.55 K | 0.0105
in isobutanol, 315.75 K | 0.0132
in isobutanol, 319.55 K | 0.0158
in isobutanol, 323.85 K | 0.0192
in isobutanol, 328.95 K | 0.0235
in isobutanol, 333.95 K | 0.0283
in isobutanol, 337.95 K | 0.0332
in isobutanol, 342.15 K | 0.0391
in isobutanol, 346.65 K | 0.0457
in n-butanol, 305.15 K | 0.013
in n-butanol, 309.55 K | 0.0153
in n-butanol, 314.95 K | 0.0177
in n-butanol, 318.35 K | 0.0201
in n-butanol, 321.35 K | 0.0228
in n-butanol, 324.35 K | 0.026
in n-butanol, 327.95 K | 0.03
in n-butanol, 332.05 K | 0.0349
in n-butanol, 336.75 K | 0.0405
in n-butanol, 341.25 K | 0.047
in n-butanol, 345.35 K | 0.0546
in sec-butanol, 304.55 K | 0.0142
in sec-butanol, 307.65 K | 0.0166
in sec-butanol, 311.55 K | 0.0199
in sec-butanol, 316.25 K | 0.0243
in sec-butanol, 321.35 K | 0.0297
in sec-butanol, 326.15 K | 0.0359
in sec-butanol, 331.15 K | 0.0428
in sec-butanol, 335.25 K | 0.05
in sec-butanol, 339.25 K | 0.0578
in sec-butanol, 343.55 K | 0.0667
in tert-butanol, 304.35 K | 0.0193
in tert-butanol, 306.95 K | 0.0229
in tert-butanol, 310.15 K | 0.0271
in tert-butanol, 314.95 K | 0.0321
in tert-butanol, 317.95 K | 0.0372
in tert-butanol, 321.65 K | 0.043
in tert-butanol, 325.85 K | 0.0493
in tert-butanol, 329.45 K | 0.0556
in tert-butanol, 333.05 K | 0.0627
in tert-butanol, 336.35 K | 0.0703
in tert-butanol, 339.65 K | 0.0791
in tert-butanol, 343.65 K | 0.0878
in tert-butanol, 345.25 K | 0.0915
